Assay results published in PubChem BioAssay (NCI).
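Five compound concentrations were applied to cells in 96-well plates for 48 hours; endpoints were derived by simple linear interpolation of the resulting dose-response curve. The concentration for 50% growth inhibition is given as GI50. Definition used: TGI = concentration required for complete inhibition of growth.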

What was measured:
Assay in all cases: inhibition of tumour cell growth, NCI panel, 48 h
OVCAR-3 ovarian = system: OVCAR-3 ovarian
TK-10 renal = system: TK-10 renal
HCT-15 colon = system: HCT-15 colon
SK-OV-3 ovarian = system: SK-OV-3 ovarian
SF-268 CNS = system: SF-268 CNS
NCI-H226 lung = system: NCI-H226 lung
MALME-3M melanoma = system: MALME-3M melanoma
SF-539 CNS = system: SF-539 CNS
CAKI-1 renal = system: CAKI-1 renal
786-0 renal = system: 786-0 renal

Row | SMILES | GI50 (OVCAR-3 ovarian) [µM] | TGI (OVCAR-3 ovarian) [µM] | GI50 (TK-10 renal) [µM] | TGI (TK-10 renal) [µM] | GI50 (HCT-15 colon) [µM] | TGI (HCT-15 colon) [µM] | GI50 (SK-OV-3 ovarian) [µM] | TGI (SK-OV-3 ovarian) [µM] | GI50 (SF-268 CNS) [µM] | TGI (SF-268 CNS) [µM] | GI50 (NCI-H226 lung) [µM] | TGI (NCI-H226 lung) [µM] | GI50 (MALME-3M melanoma) [µM] | TGI (MALME-3M melanoma) [µM] | GI50 (SF-539 CNS) [µM] | TGI (SF-539 CNS) [µM] | GI50 (CAKI-1 renal) [µM] | TGI (CAKI-1 renal) [µM] | GI50 (786-0 renal) [µM] | TGI (786-0 renal) [µM]
1 | O=C(Nc1cccc(-n2cc(-c3ccncc3)c(-c3ccc(Cl)c(O)c3)n2)c1)Nc1cc(C(F)(F)F)cc(C(F)(F)F)c1 | 0.345 | 1.11 | 0.843 | 2.75 | 0.591 | 3.01 | 1.18 | 2.83 | 0.846 | 2.29 | 1.2 | 5.14 | 0.831 | 2.24 | 0.777 | 1.53 | 0.867 | 2.88 | 1.02 | 2.35
2 | NNC(=O)C1CCC(=O)N1S(=O)(=O)c1ccccc1 (stereo unspecified) | – | > 100 | – | > 100 | – | > 100 | – | > 100 | – | > 100 | – | > 100 | – | > 100 | – | > 100 | – | > 100 | – | > 100
3 | CCOc1cc2c(C(=O)CC)c(O)ccc2o1 | – | > 100 | – | > 100 | – | > 100 | – | > 93.6 | – | > 100 | – | > 100 | – | > 100 | – | > 100 | – | > 100 | – | > 100
4 | O=C1OCC2=C1C(c1cccc(Cl)c1)c1cc3c(cc1N2CCO)OCCO3 (stereo unspecified) | 0.0251 | 0.0618 | 0.12 | 37.3 | 0.073 | > 100 | 0.0548 | 1.96 | 0.0598 | 13.2 | 0.0845 | 1.85 | 0.0551 | > 100 | 0.0467 | 0.975 | 0.0697 | > 55.6 | 0.064 | 5.5
5 | CC(=O)NCCC1CN(C(=O)/C=C/I)c2ccccc21 (stereo unspecified) | – | 12.6 | – | 3.63 | – | 9.66 | – | 27.8 | – | 23.5 | – | 29.2 | – | 26.3 | – | 21.1 | – | 9.03 | – | 3.11
6 | C[C@H](OCc1ccccc1)C(=O)N1CCS(=O)(=O)N2CCC[C@@H]2C1=O | – | > 100 | – | > 100 | – | > 100 | – | > 100 | – | > 100 | – | > 100 | – | > 100 | – | > 100 | – | > 100 | – | > 100
7 | COc1ccc2c(c1)c(CC(=O)[Se]C)c(C)n2C(=O)c1ccc(Cl)cc1 | > 0.367 | > 0.583 | > 0.347 | > 0.543 | > 0.506 | > 1 | > 0.658 | 0.989 | > 0.199 | > 0.53 | – | > 0.27 | > 0.346 | > 0.582 | > 0.238 | > 0.526 | > 0.266 | > 0.515 | > 0.197 | > 0.428
8 | C=Cc1cncc(C#N)c1CCc1c(C#N)cncc1C=C | > 100 | > 100 | > 100 | > 100 | > 100 | > 100 | – | > 10 | – | > 10 | > 100 | > 100 | > 100 | > 100 | > 100 | > 100 | > 10 | > 100 | > 100 | > 100
9 | COc1ccc(/C=C/c2cc(OC)c(OC)c(OC)c2)cc1 | – | 17.7 | – | > 100 | – | > 93.5 | – | > 94.6 | – | > 85.3 | – | > 87.7 | – | 74.3 | – | 13.6 | – | 98.4 | – | > 100
10 | O=C1c2cc3c(cc2[C@@H]2[C@H]1c1ccc([N+](=O)[O-])cc1C(=O)N2CCCBr)OCO3 | < 0.037 | – | 0.134 | 4.04 | < 0.0226 | 0.656 | < 0.01 | > 100 | < 0.01 | 0.394 | < 0.01 | < 0.01 | < 0.0189 | 0.168 | < 0.01 | < 0.01 | < 0.01 | < 0.0335 | < 0.01 | < 0.01
11 | CC1=NN(C(=O)c2ccccc2O)C(=O)/C1=C/c1ccc(O)cc1 | – | 3.43 | – | > 100 | – | > 100 | – | > 100 | – | > 100 | – | 41.2 | – | > 100 | – | 6.73 | – | > 100 | – | > 100
12 | Cc1nc(Nc2ccccc2)sc1C(=O)CC(=O)C(=O)Nc1c(C(C)C)cccc1C(C)C | – | > 100 | – | > 100 | – | > 100 | – | > 100 | – | > 100 | – | > 100 | – | > 100 | – | > 100 | – | > 100 | – | > 100
13 | C/C(=N/NC(=S)N1CCCCC1)c1ccccc1O | – | > 31.6 | – | > 31.6 | – | > 31.6 | – | > 31.6 | – | > 31.6 | – | > 31.6 | – | > 31.6 | – | > 100 | – | > 31.6 | – | > 31.6
14 | NCCCC[C@@H]1NC(=O)[C@H]2CCCN2C(=O)[C@H](Cc2ccccc2)CNC(=O)[C@H](Cc2ccccc2)NC1=O | > 37.5 | > 37.5 | > 37.5 | > 37.5 | > 37.5 | > 37.5 | > 37.5 | > 37.5 | > 37.5 | > 37.5 | > 37.5 | > 37.5 | > 37.5 | > 37.5 | > 37.5 | > 37.5 | > 37.5 | > 37.5 | > 37.5 | > 37.5
15 | N#C/C(=C\c1ccsc1)c1nc2ccccc2o1 | 85.1 | > 100 | 21.1 | 70.5 | > 100 | > 100 | 40.7 | > 100 | 38 | > 100 | > 100 | > 100 | 45.2 | > 100 | 38.7 | > 100 | 22.3 | > 100 | 8.4 | > 100
